In ChEMBL document CHEMBL1201862, “PubChem BioAssay data set” (2004):
Activity calls are given as the source filed them.

How the values were obtained:
[1] = test system: Vero; experiment: cells; assay type: functional, cell-based; details: Chlorocebus sabaeus
[2] = test system: Vero; experiment: cells; assay type: functional; details: Chlorocebus sabaeus
[3] = target: Paired box protein Pax-8 (Homo sapiens, UniProt Q06710); experiment: PAX8 transcriptional activity inhibition in RMG-I – RMG-I cells, luciferase, cherry-pick, dose response (AID 687027); assay type: functional, cell-based;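 further: luciferase reporter driven by Pax8 target thyroperoxidase promoter measured by SteadyGlo luminescence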
[4] = target: Cytochrome P450 3A4 (Homo sapiens, UniProt P08684); details: Potency;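 further: confirmatory qHTS run detecting inhibitors and substrates of CYP3A4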
[5] = viability of uninfected HEp-2 cells – cell-based, HTS, cytotoxicity control for RSV inhibitor project, dose response (AID 2410); assay type: functional; details: human respiratory syncytial virus
[6] = cells; assay type: functional, cell-based
[7] = cells; assay type: functional, cell-based; remark: listed apart in the source
[8] = target: T1, Carboxy-terminal domain RNA polymerase II polypeptide A small phosphatase 1 (Homo sapiens, UniProt Q9GZU7); experiment: CTDSP1 inhibitors, concentration-response, biochemical, absorbance readout, ultra-high-throughput screen actives (AID 540297); assay type: functional
T1 sequence (Q9GZU7 whole entry): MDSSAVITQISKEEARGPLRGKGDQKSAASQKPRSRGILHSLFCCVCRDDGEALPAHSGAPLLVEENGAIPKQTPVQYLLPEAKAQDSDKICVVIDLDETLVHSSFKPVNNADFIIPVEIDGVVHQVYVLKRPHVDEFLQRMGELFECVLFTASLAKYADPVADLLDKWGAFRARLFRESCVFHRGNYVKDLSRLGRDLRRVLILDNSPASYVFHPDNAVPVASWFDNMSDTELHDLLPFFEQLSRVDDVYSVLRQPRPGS

[9] = target: Large T antigen (Simian virus 40, UniProt P03070); assay type: functional, Betapolyomavirus macacae;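 further: Confirmatory-stage PubChem screen for compounds that inhibit SV40 T antigen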
[10] = target: Photoreceptor-specific nuclear receptor (Homo sapiens, UniProt Q9Y5X4); assay type: functional, cell-based;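 further: CHO-S cells with Gal4-NCOR and VP16-NR2E3 two-hybrid luciferase reporter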
[11] = target: FAD-linked sulfhydryl oxidase ALR (Homo sapiens, UniProt P55789); experiment: ALR-catalysed DTT oxidation blockers – biochemical, H2O2 detection, luminescence, cherry-pick, dose response (AID 493248)
[12] = target: T2, Polyadenylate-binding protein 1 (Homo sapiens, UniProt P11940); experiment: MLLE binding blockers, Cy5 peptide tracer – biochemical, fluorescence polarization, Cy5-PAM2 peptide, secondary, miRNA deadenylation inhibitor project, dose response (AID 602260); assay type: functional; details: read-out: IC50_Mean
[13] = target: T2, Polyadenylate-binding protein 1; experiment: MLLE domain peptide-binding blockers, IC50 – biochemical, fluorescence polarization, FITC-PAM2 peptide, dose response (AID 602259); assay type: functional; details: read-out: IC50_Mean
[14] = target: T3, Protein skinhead-1 (Caenorhabditis elegans, UniProt P34707); assay type: functional
T3 sequence (P34707 whole entry): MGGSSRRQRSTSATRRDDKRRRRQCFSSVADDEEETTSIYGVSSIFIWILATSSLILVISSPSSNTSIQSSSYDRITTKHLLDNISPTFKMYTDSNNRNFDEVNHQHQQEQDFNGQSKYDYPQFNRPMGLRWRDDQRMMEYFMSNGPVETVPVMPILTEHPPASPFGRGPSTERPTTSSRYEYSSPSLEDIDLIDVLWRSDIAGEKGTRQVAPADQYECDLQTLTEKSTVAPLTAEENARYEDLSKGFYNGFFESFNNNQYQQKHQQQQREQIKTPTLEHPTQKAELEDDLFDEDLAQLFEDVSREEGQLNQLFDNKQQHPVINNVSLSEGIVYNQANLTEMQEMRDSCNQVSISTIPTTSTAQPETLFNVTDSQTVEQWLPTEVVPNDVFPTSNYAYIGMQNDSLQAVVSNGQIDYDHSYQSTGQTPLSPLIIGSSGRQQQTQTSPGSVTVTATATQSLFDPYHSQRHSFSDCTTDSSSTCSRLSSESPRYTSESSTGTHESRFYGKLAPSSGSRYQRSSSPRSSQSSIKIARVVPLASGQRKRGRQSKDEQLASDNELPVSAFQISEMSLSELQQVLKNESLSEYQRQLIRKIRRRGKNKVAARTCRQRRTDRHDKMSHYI

[15] = cells; assay type: functional, cell-based; remark: listed apart in the source
[16] = cells; assay type: functional, cell-based; remark: listed apart in the source
[17] = microbe, parasite or virus in culture; assay type: functional; details: Mycobacterium tuberculosis
[18] = target: T4, Fatty acid synthase (Homo sapiens, UniProt P49327); experiment: inhibition of human FAS-TE enzyme activity – biochemical, endpoint fluorescence intensity, uHTS hits, dose response (AID 624327); assay type: functional;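 further: fluorescence from hydrolysis of an O-methyl fluorescein acyl ester substrate by the enzyme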
[19] = target: T4, Fatty acid synthase; experiment: inhibition of human FAS-TE enzyme activity – biochemical, kinetic fluorescence intensity, dose response (AID 624326); assay type: functional;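 further: rate of fluorescence rise from hydrolysis of a fluorogenic O-methyl fluorescein ester substrate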
[20] = target: Heat shock protein HSP 90-alpha (Homo sapiens, UniProt P07900); assay type: functional, organism-based
[21] = target: T5, Small ubiquitin-related modifier 1 (Homo sapiens, UniProt P63165); experiment: SUMO1 protein interaction blockers, potency – biochemical, fluorescence polarization, uHTS hits, dose response (AID 624382); assay type: functional; details: read-out: IC50_Mean
[22] = target: T5, Small ubiquitin-related modifier 1; experiment: SUMO1 protein-protein binding blockers, potency – biochemical, FRET, dose response (AID 624383); assay type: functional; details: read-out: IC50_Mean
[23] = target: T6, Microphthalmia-associated transcription factor (Homo sapiens, UniProt O75030); experiment: reducers of TRPM1 reporter luminescence, concentration series – cell-based, SK-MEL-5, cherry-picked, set 3, MITF inhibitor project, dose response (AID 493073); assay type: functional;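 further: SK-MEL-5 melanoma cells with luciferase driven by the MITF target TRPM1 promoter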
T6 sequence (O75030 whole entry): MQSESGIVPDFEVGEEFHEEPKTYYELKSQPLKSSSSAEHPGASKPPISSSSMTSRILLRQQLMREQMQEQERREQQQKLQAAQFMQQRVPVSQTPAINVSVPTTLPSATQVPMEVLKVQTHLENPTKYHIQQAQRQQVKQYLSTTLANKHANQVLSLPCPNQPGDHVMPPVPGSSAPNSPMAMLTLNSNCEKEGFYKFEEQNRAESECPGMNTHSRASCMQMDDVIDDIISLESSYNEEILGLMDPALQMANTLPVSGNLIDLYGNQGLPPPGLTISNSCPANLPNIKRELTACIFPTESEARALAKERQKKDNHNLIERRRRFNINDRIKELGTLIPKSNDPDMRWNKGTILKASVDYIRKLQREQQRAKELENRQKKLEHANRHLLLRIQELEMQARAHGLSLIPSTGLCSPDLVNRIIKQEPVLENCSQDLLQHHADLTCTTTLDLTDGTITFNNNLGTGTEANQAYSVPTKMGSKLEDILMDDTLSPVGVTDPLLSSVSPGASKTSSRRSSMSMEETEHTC

[24] = target: Genome polyprotein (dengue virus type 2, UniProt P29990); experiment: flavivirus cap methylation enzyme inhibition – biochemical, confirmation dose response, primary screen (AID 588689); assay type: functional

Sequence of Large T antigen (P03070 whole entry, the tested form may be a part): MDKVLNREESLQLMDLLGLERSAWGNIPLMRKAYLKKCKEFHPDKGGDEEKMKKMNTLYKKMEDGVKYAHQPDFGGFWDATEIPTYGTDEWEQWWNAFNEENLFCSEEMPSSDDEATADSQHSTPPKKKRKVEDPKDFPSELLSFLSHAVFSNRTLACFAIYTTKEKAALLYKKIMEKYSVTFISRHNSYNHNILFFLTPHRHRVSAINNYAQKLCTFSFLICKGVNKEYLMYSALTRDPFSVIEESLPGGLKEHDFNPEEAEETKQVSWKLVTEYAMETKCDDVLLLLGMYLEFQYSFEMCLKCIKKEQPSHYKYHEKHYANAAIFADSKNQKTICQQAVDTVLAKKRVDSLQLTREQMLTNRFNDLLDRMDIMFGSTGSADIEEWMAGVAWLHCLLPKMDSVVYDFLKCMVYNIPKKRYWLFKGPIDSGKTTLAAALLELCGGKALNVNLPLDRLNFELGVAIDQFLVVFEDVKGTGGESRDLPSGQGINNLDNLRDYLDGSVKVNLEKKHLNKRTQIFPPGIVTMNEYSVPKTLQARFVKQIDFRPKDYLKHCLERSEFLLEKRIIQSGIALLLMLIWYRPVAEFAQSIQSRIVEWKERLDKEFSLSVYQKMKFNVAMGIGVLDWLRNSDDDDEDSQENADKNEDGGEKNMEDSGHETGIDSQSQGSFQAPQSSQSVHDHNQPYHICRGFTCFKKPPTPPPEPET
Sequence of Cytochrome P450 3A4 (P08684 whole entry): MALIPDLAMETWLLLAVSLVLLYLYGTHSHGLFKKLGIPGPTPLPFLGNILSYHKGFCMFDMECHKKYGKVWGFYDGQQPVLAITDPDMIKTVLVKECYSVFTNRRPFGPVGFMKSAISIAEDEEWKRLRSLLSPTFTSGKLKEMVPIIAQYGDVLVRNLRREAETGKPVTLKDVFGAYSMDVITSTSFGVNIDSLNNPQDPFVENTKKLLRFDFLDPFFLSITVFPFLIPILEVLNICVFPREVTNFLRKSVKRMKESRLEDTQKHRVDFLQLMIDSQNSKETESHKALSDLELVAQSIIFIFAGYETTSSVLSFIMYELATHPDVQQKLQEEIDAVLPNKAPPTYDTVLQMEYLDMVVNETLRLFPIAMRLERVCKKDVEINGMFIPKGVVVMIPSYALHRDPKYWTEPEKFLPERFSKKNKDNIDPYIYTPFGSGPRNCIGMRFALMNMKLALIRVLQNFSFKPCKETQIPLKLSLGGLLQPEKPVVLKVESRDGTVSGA
T5 sequence (P63165 whole entry): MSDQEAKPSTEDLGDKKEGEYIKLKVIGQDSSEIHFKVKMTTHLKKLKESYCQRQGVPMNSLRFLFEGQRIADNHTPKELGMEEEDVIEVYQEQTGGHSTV
T4 sequence (P49327 whole entry): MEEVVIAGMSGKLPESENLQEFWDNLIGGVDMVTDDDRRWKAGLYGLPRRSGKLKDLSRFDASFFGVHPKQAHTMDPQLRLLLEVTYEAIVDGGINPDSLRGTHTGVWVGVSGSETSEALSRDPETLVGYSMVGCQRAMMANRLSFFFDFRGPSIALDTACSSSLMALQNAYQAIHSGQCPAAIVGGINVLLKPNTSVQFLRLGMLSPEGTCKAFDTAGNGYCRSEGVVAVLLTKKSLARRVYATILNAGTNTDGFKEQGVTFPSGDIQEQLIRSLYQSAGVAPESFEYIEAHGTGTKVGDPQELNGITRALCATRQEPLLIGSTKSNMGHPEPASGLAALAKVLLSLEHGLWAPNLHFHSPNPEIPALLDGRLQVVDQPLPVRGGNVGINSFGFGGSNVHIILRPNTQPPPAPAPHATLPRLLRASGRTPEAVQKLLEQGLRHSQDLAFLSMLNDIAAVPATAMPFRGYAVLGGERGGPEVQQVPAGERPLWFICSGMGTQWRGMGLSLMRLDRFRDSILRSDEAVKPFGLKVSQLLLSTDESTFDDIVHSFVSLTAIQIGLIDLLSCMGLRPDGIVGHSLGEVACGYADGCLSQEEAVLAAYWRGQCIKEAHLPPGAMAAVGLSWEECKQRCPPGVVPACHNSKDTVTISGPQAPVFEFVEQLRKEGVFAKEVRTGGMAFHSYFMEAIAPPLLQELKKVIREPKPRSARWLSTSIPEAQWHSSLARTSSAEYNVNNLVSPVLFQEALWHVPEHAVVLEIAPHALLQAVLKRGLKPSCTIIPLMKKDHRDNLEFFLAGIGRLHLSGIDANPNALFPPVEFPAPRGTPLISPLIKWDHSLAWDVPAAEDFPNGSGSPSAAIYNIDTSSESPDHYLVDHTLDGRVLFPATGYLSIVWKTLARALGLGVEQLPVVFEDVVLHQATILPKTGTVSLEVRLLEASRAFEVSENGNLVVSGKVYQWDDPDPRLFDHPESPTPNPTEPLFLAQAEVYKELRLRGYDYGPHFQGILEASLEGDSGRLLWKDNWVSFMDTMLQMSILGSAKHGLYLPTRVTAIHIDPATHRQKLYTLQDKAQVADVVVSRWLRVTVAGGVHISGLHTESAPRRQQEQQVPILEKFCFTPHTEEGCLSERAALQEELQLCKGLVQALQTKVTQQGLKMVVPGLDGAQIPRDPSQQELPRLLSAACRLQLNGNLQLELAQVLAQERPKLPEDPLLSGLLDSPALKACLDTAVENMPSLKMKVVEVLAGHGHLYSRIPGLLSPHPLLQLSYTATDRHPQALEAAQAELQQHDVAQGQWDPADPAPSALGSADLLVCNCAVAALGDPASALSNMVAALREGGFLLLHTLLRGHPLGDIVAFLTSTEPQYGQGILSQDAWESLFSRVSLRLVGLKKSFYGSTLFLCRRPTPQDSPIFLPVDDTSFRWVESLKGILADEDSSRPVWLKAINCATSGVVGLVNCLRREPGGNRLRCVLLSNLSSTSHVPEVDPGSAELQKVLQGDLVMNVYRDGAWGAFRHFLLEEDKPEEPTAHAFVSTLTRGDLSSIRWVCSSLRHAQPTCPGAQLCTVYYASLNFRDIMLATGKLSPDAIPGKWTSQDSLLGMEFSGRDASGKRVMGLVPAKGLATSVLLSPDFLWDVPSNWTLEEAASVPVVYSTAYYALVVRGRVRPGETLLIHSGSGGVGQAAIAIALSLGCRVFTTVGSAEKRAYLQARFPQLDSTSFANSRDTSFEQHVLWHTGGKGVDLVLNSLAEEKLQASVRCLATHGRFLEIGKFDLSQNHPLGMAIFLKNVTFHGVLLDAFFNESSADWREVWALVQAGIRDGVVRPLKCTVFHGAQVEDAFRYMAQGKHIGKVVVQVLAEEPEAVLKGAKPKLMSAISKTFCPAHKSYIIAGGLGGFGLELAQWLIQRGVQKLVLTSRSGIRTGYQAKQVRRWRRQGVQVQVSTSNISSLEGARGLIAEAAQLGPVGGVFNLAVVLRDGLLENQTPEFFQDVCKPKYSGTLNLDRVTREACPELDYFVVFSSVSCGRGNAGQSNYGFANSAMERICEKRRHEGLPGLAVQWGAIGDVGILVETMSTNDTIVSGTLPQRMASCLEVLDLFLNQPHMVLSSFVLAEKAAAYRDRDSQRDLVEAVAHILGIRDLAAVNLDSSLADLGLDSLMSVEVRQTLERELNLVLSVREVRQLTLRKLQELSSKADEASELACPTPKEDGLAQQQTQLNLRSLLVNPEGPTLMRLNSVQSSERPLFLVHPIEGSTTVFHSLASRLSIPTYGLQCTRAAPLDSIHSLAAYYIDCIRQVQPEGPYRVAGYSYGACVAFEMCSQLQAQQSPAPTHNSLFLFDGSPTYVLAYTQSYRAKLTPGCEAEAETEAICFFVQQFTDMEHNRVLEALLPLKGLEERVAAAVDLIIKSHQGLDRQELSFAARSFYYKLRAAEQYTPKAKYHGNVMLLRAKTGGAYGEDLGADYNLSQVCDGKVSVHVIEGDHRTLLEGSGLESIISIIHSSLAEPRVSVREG
T2 sequence (P11940 whole entry, the tested form may be a part): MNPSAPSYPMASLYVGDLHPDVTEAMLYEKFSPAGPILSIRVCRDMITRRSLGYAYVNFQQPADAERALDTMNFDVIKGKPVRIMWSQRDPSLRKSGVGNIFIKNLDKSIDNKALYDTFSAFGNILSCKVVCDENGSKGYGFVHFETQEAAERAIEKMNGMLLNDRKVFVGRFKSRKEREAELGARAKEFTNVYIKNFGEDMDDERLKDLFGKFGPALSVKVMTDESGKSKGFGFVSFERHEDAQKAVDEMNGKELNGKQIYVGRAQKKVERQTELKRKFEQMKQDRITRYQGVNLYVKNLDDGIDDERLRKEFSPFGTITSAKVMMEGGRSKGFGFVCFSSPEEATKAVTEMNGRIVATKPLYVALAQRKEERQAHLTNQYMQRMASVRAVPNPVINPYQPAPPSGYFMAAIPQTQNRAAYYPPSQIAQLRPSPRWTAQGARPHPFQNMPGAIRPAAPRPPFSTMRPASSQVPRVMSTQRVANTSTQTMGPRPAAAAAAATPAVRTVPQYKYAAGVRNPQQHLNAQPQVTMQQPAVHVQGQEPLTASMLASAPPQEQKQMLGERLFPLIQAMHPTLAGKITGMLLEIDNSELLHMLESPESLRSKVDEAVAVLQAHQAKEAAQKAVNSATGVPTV
Sequence of Photoreceptor-specific nuclear receptor (Q9Y5X4 whole entry, the tested form may be a part): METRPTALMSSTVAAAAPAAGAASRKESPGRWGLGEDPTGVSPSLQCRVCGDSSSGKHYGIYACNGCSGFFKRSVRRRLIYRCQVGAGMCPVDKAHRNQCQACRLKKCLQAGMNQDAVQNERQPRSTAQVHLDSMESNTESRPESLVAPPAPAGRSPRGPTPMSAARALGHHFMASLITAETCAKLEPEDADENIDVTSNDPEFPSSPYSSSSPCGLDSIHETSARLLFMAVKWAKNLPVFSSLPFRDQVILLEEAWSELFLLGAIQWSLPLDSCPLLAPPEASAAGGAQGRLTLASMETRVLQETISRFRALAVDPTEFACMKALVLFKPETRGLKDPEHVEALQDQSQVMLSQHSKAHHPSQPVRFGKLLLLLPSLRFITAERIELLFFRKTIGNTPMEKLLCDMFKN
Sequence of FAD-linked sulfhydryl oxidase ALR (P55789 whole entry): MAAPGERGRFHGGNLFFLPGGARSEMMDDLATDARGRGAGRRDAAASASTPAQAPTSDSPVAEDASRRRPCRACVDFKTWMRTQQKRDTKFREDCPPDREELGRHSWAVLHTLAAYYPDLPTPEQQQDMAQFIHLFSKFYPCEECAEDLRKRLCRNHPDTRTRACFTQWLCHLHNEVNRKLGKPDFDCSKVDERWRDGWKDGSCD

## C[C@]12CC[C@H](O)C[C@@H]1CC[C@@H]1[C@@H]2CC[C@]2(C)[C@@H](C3=CC(=O)OC3)CC[C@]12O
[1]
  IC50: < 0.05 µM (active)
[2]
  CC50: 1.65 µM (active)
[3]
  AC50: 2.09 µM (active)

## COC(=O)c1ccc(CN2[C@@H]3C[C@@H](O)CC[C@@H]3C[C@H]2C(=O)OC)cc1
[4]
  AC50: 15.8 µM (inconclusive)

## COc1ccc(CNC(=O)C(C)Cc2ccccc2)cc1O (stereo unspecified)
[4]
  AC50: 6.31 µM (inconclusive)

## Cc1ccc2nc(-c3ccc(N)cc3)sc2c1S(=O)(=O)O
[4]
  AC50: 31.6 µM (inconclusive)

## N#C/C(=C/c1ccc(N2CCCCC2)o1)C(=O)NCCc1c[nH]c2ccccc12
[5]
  CC50: 49.6 µM (active)
[2]
  CC50: > 25 µM (active)

## O=C(NCCc1ccccc1)C1CCN(C(=O)c2ccc([N+](=O)[O-])cc2)CC1
[6]
  IC50: > 29.9 µM (inactive)
[7]
  EC50: > 29.9 µM (inactive)

## Nc1c(C(=O)OCC(=O)Nc2cccc([N+](=O)[O-])c2)[nH]c(=O)[nH]c1=O
[8]
  IC50: 7.55 µM (active)

## O=C(NCCCN1CCOCC1)c1ccc(/C=C2\Oc3ccccc3N(Cc3ccccc3F)C2=O)cc1
[1]
  IC50: 21.9 µM (active)

## O=[N+]([O-])c1ccc2c(c1N1CCCCC1)=NC1(CCCCC1)[N+]=2[O-]
[9]
  IC50: > 100 µM (active)

## COc1cc(/C=C2\C(C)=C(C#N)c3nc(N)c(C#N)c(C)c32)ccc1OCC(=O)O
[9]
  IC50: 58.1 µM (active)

## CC(=O)N1c2ccc(S(=O)(=O)N3CCC(C(=O)Nc4cccc(Cl)c4)CC3)cc2CC1C (stereo unspecified)
[10]
  IC50: 1.47 µM (active)

## COc1ccc(NC2CCCN(C(=O)CSc3ccccc3)C2)cc1 (stereo unspecified)
[9]
  IC50: 7.48 µM (active)

## Cn1c(=O)c2nc(Nc3ccccc3)[nH]c2n(C)c1=O
[6]
  IC50: > 29.9 µM (inactive)
[7]
  EC50: > 29.9 µM (inactive)

## CC(C)(C)NC(=O)CN(C(=O)CCN1CCCc2ccccc21)C(C)(C)C
[11]
  AC50: 4.37 µM (active)
[12]
  IC50: > 66 µM (inactive)
[13]
  IC50: > 66 µM (inactive)
[14]
  IC50: > 100 µM (inactive)

## CCOC(=O)Cc1csc(SCC(=O)Nc2sc3c(c2C(N)=O)CCC3)n1
[8]
  IC50: 4.63 µM (active)

## Cc1ccccc1CN1C(=O)CSc2ccc(C(=O)N3CCOCC3)cc21
[15]
  EC50: > 350 µM (not active)
[16]
  EC50: > 350 µM (not active)

## CCN1CSC(=S)N(Cc2ccccc2)C1
[17]
  CC50: 20.7 µM (active)
[2]
  CC50: 16.1 µM (active)

## COc1ccc(CN(Cc2cc3cccc(C)c3n3nnnc23)C(=O)N2CCOCC2)cc1
[18]
  IC50: 18.8 µM (active)
[19]
  IC50: 26.4 µM (inactive)

## CS(=O)(=O)c1ccc2nc(NC(=O)C3CC(=O)N(c4ccc(F)cc4)C3)sc2c1 (stereo unspecified)
[15]
  EC50: > 350 µM (not active)
[16]
  EC50: > 350 µM (not active)

## CC(C)OC(=O)[C@H]1[C@H](c2ccc(Cl)cc2)[C@@](C#N)(C(N)=O)[C@@H]2C=CC(C(N)=O)=CN21
[18]
  IC50: 10.9 µM (active)
[19]
  IC50: 7.56 µM (active)

## Oc1ccc(-c2nc3ccc4ccccc4c3c3c2CCC3)cc1O
[20]
  AC50: 6.97 µM (active)

## CCC(CO)Oc1cc(NC(=O)c2ccccc2C)c2ncn(C(C)C)c2c1 (stereo unspecified)
[21]
  IC50: > 66.6 µM (inactive)
[22]
  IC50: 17.6 µM (active)

## Cc1ccc(Cl)cc1Nc1nc(-c2sc(NC(=O)C(C)(C)C)nc2C)cs1
[5]
  CC50: 21.4 µM (active)
[21]
  IC50: > 66.6 µM (inactive)
[22]
  IC50: 9.1 µM (active)

## CCN(CC)S(=O)(=O)c1ccc(N2CCCC2)c(NC(=O)c2ccc([N+](=O)[O-])o2)c1
[23]
  AC50: 3.18 µM (active)
[1]
  IC50: > 25 µM (active)
[2]
  CC50: 17.8 µM (active)

## O=C(C[C@H]1C[C@H](C(=O)N2CCOCC2)[C@@]2(CCC3CCCC3)c3[nH]c4cc(-c5ccco5)ccc4c3CCN2C1=O)NCCN1CCOCC1
[18]
  IC50: 6.62 µM (active)
[19]
  IC50: 3.76 µM (active)

## COc1ccc(OC)c(NC(=O)CSc2ncnc3sc(C)cc23)c1
[8]
  IC50: 5.46 µM (active)

## CC(CNC(=O)C1CCCCC1C(=O)O)c1ccccc1 (stereo unspecified)
[6]
  IC50: > 29.9 µM (inactive)
[7]
  EC50: > 29.9 µM (inactive)

## CCCCCCCCCCCCCC(=O)NO
[20]
  AC50: 2.71 µM (active)

## COc1cccc(/C=N/NC(=O)CSc2ccccc2C)c1O
[15]
  EC50: 30.4 µM (active)
[16]
  EC50: 52.4 µM (active)

## O=C(NCCN1CCC(n2c(O)nc3ccccc32)CC1)c1cccc2c1-c1ccccc1C2=O
[21]
  IC50: > 66.6 µM (inactive)
[22]
  IC50: 17.9 µM (active)

## CCc1nc2c(OCc3ccc(Cl)cc3)cccn2c1N(C=O)Cc1ccc(OC)cc1
[18]
  IC50: 8.01 µM (active)
[19]
  IC50: 9.84 µM (active)

## CCCCCCN(C(=O)CCCCCN1C(=O)NC(c2ccc(-c3ccccc3)cc2)C(C(=O)OCc2ccccc2)=C1C)C(C(=O)NCCCC)c1ccccc1 (stereo unspecified)
[4]
  AC50: 2 µM (inconclusive)

## CC(=O)c1ccc(N2/C(=N/C(=O)COc3ccccc3)SC3CS(=O)(=O)CC32)cc1 (stereo unspecified)
[15]
  EC50: > 350 µM (not active)
[16]
  EC50: > 350 µM (not active)

## O=C(N/N=C(\c1ccccc1)c1cccnc1)c1cc(O)ccc1O
[9]
  IC50: 6.14 µM (active)

## N#Cc1c(N)sc(=S)c2c1CCCCC2
[9]
  IC50: 46.4 µM (active)
[24]
  IC50: > 100 µM (active)

## Nc1ccc(-c2ccc(N)c(O)c2)cc1O
[4]
  AC50: 31.6 µM (inconclusive)
